According to article PMC3295836 (Bioorganic & medicinal chemistry letters, 2012):
Values joined by “and” are separate entries in the source; they are usually repeats but may differ in a detail not shown here. Equal values may be shown once.

Tests used:
[1] = biological target: anthrax lethal factor (LF) (Bacillus anthracis, UniProt P15917); assay type: biochemical
[2] = test system: anthrax lethal toxin (LT; PA + LF); design: species or system Fischer 344 rats; conditions: rat, in vivo
in vivo = conditions: NZW, rabbit, sc, 10 mg/kg
[3] = t = 30 min

anthrax lethal factor (LF), sequence (P15917 34-809 limits assumed): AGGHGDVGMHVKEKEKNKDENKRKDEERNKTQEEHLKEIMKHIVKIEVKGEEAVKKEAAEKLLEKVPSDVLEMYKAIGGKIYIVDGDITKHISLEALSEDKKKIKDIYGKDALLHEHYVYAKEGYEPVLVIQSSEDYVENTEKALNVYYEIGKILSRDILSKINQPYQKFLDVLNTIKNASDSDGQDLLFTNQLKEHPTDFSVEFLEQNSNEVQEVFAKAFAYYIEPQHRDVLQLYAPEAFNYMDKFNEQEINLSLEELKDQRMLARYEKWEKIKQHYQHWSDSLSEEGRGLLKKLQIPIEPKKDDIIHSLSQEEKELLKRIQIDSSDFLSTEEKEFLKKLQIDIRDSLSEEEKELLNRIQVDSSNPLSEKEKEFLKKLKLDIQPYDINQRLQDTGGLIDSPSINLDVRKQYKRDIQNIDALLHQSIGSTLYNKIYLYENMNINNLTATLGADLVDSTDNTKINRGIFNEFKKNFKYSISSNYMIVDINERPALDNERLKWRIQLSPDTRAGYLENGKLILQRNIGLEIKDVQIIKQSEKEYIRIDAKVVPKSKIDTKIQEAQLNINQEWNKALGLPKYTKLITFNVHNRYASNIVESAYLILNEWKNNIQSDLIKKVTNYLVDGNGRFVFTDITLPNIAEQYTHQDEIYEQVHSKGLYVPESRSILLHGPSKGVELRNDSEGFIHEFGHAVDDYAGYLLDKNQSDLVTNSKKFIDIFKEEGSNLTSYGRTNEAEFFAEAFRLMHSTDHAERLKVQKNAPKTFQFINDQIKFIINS

| Compound | surv (number of survivors per group) [2] | rMST = MST(LFI)/MST(controls) [2] | also measured |
| --- | --- | --- | --- |
| CC[C@@H](NCCCC[C@@H](Cc1cc(C)c(F)c(C)c1)C(=O)NO)c1ccc(F)cc1 [LFI 11] |  |  | difference in potency against LF between analogs [1]: 50 fold |
| CCC(NCCCC[C@@H](Cc1cc(C)c(F)c(C)c1)C(=O)NO)c1ccc(F)cc1 (stereo partly shown) [LFI 18] | protect all of the animals and 3/3 and 5/6 |  |  |
| CCC(NCCCC[C@@H](C[C@@H](OC)c1ccc(F)cc1)C(=O)NO)c1ccc(F)cc1 (stereo partly shown) [LFI 20] |  |  | Cmax (in vivo): 561 ng/mL |
| Cc1cc(O[C@H](CCCCNCc2ccc(F)cc2)C(=O)NO)cc(C)c1F [LFI 3] | 0/3 | 16.0 |  |
| Cc1cc(C[C@H](CCCCN[C@H](Cc2ccccc2)c2ccc(F)cc2)C(=O)NO)cc(C)c1F [LFI 15] |  |  | LF (FRET) KinM) [1]: sub-nanomolar |
| CO[C@H](C[C@H](CCCCNCc1ccc(F)cc1)C(=O)NO)c1ccc(F)cc1 [LFI 4] | one animal was lost |  |  |
| CCC(NCCCC[C@@H](Oc1cc(C)c(F)c(C)c1)C(=O)NO)c1ccc(F)cc1 (stereo partly shown) [LFI 19] | 1/3 |  | M = microsome stability, percent of compound remaining [3]: < 10% |
| Cc1cc(N[C@H](CCCCNCc2ccc(F)cc2)C(=O)NO)cc(C)c1F [LFI 1] | 3/5 and 3/3 | 16.8 |  |
| Cc1cc(C[C@H](CCCCNCc2ccc(F)cc2)C(=O)NO)cc(C)c1F [LFI 2] | 1/3 and 3/3 | 19.3 |  |
